Source: patent publication US7560529B2, “Method for producing catalytic antibodies (variants), antigens for immunization and nucleotide sequence” (FDS Pharma, priority 2001, dated 2009)

Tested on: CD4+ T-lymphocytes from SJL mice
Test: Flow cytometry of surface marker expression in T-lymphocytes of immunized SJL mice
Format: in vivo
Source text: To characterize the features of immune response development upon immunization with a fusion protein comprising the neuroantigen MBP, a comparative analysis of specific surface markers expression in T-lymphocytes from SJL mice that were not immunized (control), from mice immunized with the synthetic peptide MBP89-104, recombinant fusion protein gp120I-IIImbp (the product of Construct No. 15 (see FIG. 3) at two different doses and recombinant protein gp120I-III (the product of Construct No. 13 (see FIG. 3) was carried out (FIG. 11). All the immunizations were performed in parallel under identical conditions as described above. Twenty one days after the beginning of an experiment, CD4+ T-lymphocytes isolated from two mice of each group were analyzed by flow cytometry. A specific feature of SJL mice was initially low CD8+ T-cell counts.

VVHFFKNIVTPRTPPPS [peptide MBP, encephalitogenic 89-104 peptide of the myelin basic protein, reference compound]
T-cell immune response by day 21 after immunization (surface markers CD11a, CD44, CD45RB, CD62-L): fully developed T-cell immune response
